Data from patent US20230011571A1, “SMALL MOLECULE FURIN INHIBITORS FOR TREATING INFECTIOUS DISEASES” (BP Asset V, Inc., priority 2019, published 2023).
Values after ≈ are worked out from the molar mass of the structure shown. Read-outs that look alike come from different tables or passages of the source.

Legend:
Type in all cases: cell-based
[1] = tested on: Western equine encephalitis (California; Vero 76); test: cells
[2] = tested on: Powassan virus (LB; BHK-21); test: microbe, parasite or virus in culture
dengue virus (DENV) = test: microbe, parasite or virus in culture; settings: Dengue virus, Vero, 120 h, read-out: Percent viral inhibition DENY
[3] = tested on: Eastern equine encephalitis (FL39-939; Vero 76); test: cells
[4] = tested on: Mayaro virus (BE AR 505411; Vero 76); test: In vitro viral inhibition, Mayaro virus; settings: strain BE AR 505411, Vero 76 cells
Experimental: (§1) In vitro studies of the antiviral activity were also carried out for several viruses using Example 369.

[5] = tested on: Dengue Virus 2 (New Guinea C; Huh7); test: In vitro viral inhibition, Dengue Virus 2
[6] = tested on: Chikungunya virus (CHIKV); test: microbe, parasite or virus in culture; settings: Chikungunya virus, Vero, 48 h, read-out: Percent viral inhibition CHKV
[7] = tested on: Yellow Fever (YFV 17D; Huh7); test: microbe, parasite or virus in culture
[8] = tested on: Chikungunya (S27; Vero 76); test: In vitro viral inhibition, Chikungunya; settings: Chikungunya virus
Measles (CC; Vero 76) = test: In vitro viral inhibition, Measles; settings: Measles morbillivirus, strain CC, Vero 76 cells
Experimental: as §1

Marburg virus (MARV) = test: organism not typed; settings: Vero, 72 h, read-out: Percent viral inhibition MARV
[9] = tested on: Japanese encephalitis virus (SA-14; Vero 76); test: In vitro viral inhibition, Japanese encephalitis virus
[10] = tested on: Venezuelan equine encephalitis (TC-83; Vero 76); test: cells
[11] = tested on: Respiratory syncytial virus (A2; RD); test: In vitro viral inhibition, Respiratory syncytial virus; settings: human respiratory syncytial virus
Experimental: as §1

[12] = tested on: Usutu virus (TC-508; Vero 76); test: In vitro viral inhibition, Usutu virus; settings: strain TC-508, Vero 76 cells
Experimental: as §1

[13] = Vero 76, read-out: EC50 (ug/mL) (Neutral Red (NR) Assay)
[14] = Vero 76, read-out: EC50 (ug/mL) (VIS Drug Assay)
[15] = Neutral Red assay, read-out: EC50 (ug/mL) (Neutral Red (NR) Assay)
[16] = VIS assay, read-out: EC50 (ug/mL) (VIS Drug Assay)
[17] = Huh-7, read-out: EC50 (ug/mL) (Neutral Red (NR) Assay)
[18] = Huh-7, read-out: EC50 (ug/mL) (VIS Drug Assay)

SMILES: CC(=O)NCC1CCN(Cc2cc(Oc3cnc(N4CCN(CCC(C)C(=O)O)CC4)nc3)nc(-c3cc(Cl)cc(Cl)c3)c2)CC1 (stereo not drawn) [Example 369, 4-(4-(5-((4-((4-(acetamidomethyl)piperidin-1-yl)methyl)-6-(3,5-dichlorophenyl)pyridin-2-yl)oxy)pyrimidin-2-yl)piperazin-1-yl)-2-methylbutanoic acid]
- EC50 [1, 13]: < 0.1 µg/mL
- EC50 [1, 14]: < 0.1 µg/mL
- EC50 ([2]; BHK-21, read-out: EC50 (ug/mL) (Neutral Red (NR) Assay)): < 0.1 µg/mL
- EC50 ([2]; BHK-21, read-out: EC50 (ug/mL) (VIS Drug Assay)): < 0.1 µg/mL
- inhibition at 1 µM (dengue virus (DENV)): 33.3%
- EC50 [3, 13]: < 0.1 µg/mL
- EC50 [3, 14]: < 0.1 µg/mL
- EC50 [4, 15]: 0.28 µg/mL (≈ 0.418 µM)
- EC50 [4, 16]: 0.32 µg/mL (≈ 0.477 µM)
- EC50 [5, 17]: < 0.1 µg/mL
- EC50 [5, 18]: < 0.1 µg/mL
- inhibition at 1 µM [6]: 32.9%
- EC50 [7, 17]: 0.18 µg/mL (≈ 0.268 µM)
- EC50 [7, 18]: 0.18 µg/mL (≈ 0.268 µM)
- EC50 [8, 13]: 0.18 µg/mL (≈ 0.268 µM)
- EC50 [8, 14]: 0.12 µg/mL (≈ 0.179 µM)
- EC50 (Measles (CC; Vero 76); [15]): < 0.1 µg/mL
- EC50 (Measles (CC; Vero 76); [16]): < 0.1 µg/mL
- inhibition at 1 µM (Marburg virus (MARV)): 47.1%
- EC50 [9, 13]: 3 µg/mL (≈ 4.47 µM)
- EC50 [9, 14]: 0.32 µg/mL (≈ 0.477 µM)
- EC50 [10, 13]: 0.77 µg/mL (≈ 1.15 µM)
- EC50 [10, 14]: 0.55 µg/mL (≈ 0.82 µM)
- EC50 ([11]; read-out: EC50 (ug/mL) (Neutral Red (NR) Assay)): 0.3 µg/mL (≈ 0.447 µM)
- EC50 ([11]; read-out: EC50 (ug/mL) (VIS Drug Assay)): 28 µg/mL (≈ 41.8 µM)
- EC50 [12, 15]: 5.8 µg/mL (≈ 8.65 µM)
- EC50 [12, 16]: 2.7 µg/mL (≈ 4.03 µM)

SMILES: CC(=O)NCC1CCN(Cc2cc(Oc3cnc(N4CCN(CCC(C)C(=O)O)CC4)cn3)nc(-c3cc(Cl)cc(Cl)c3)c2)CC1 (stereo not drawn) [Example 396, 4-(4-(5-((4-((4-(acetamidomethyl)piperidin-1-yl)methyl)-6-(3,5-dichlorophenyl)pyridin-2-yl)oxy)pyrazin-2-yl)piperazin-1-yl)-2-methylbutanoic acid]
- inhibition at 1 µM (dengue virus (DENV)): 46.3%
- inhibition at 1 µM [6]: 21.5%
- inhibition at 1 µM (Marburg virus (MARV)): 26.7%

SMILES: CN1CCCN(c2ncc(Oc3cc(CN4CC[C@@H]5[C@H](CC4)[C@H]5C(=O)O)cc(-c4cc(Cl)cc(Cl)c4)n3)cn2)CC1 [Example 397, (1R,7S,8r)-4-((2-(3,5-dichlorophenyl)-6-((2-(4-methyl-1,4-diazepan-1-yl)pyrimidin-5-yl)oxy)pyridin-4-yl)methyl)-4-azabicyclo[5.1.0]octane-8-carboxylic acid]
- inhibition at 1 µM (dengue virus (DENV)): 38.7%
- inhibition at 1 µM [6]: 25.1%
- inhibition at 1 µM (Marburg virus (MARV)): 46.2%
